The results in this text go back to article PMC3495945, “Org 214007-0: A Novel Non-Steroidal Selective Glucocorticoid Receptor Modulator with Full Anti-Inflammatory Properties and Improved Therapeutic Index” (PLoS ONE, 2012).

The test system of assay [1] is murine collagen-induced arthritis (CIA) model. The conditions noted are these: for disease score (arthritis score): oral, once daily 3 weeks, therapeutic.
Description: At day 0 mice were immunized at the base of the tail with 100 μg bovine type II collagen (UMC Nijmegen, The Netherlands) in Complete Freund's Adjuvant (CFA, Difco) enriched with 2 mg/ml Mycobacterium tuberculosis H37RA (Difco). At day 21 mice were boosted by an i.p. injection of 100 μg bovine type II collagen dissolved in saline. After disease onset, mice with an arthritis score ranging from 0.25 to 1.25 were divided into matched groups (n = 12). […] The clinical severity of arthritis (arthritis score) was graded and scored as described [51]. To assess the effects of treatments, the area under the curve (AUC) of arthritis score (subtracting baseline AUC of arthritis score on day 0) was used. One day after the final treatment animals were sacrificed and the knee and ankle joints were imaged using a Faxitron X-ray, Modl MX-20 digital imaging system and analysed using Specimen (Version 2.0.1). The bone destruction was scored on a scale of 0–5 as described previously [51]. The cumulative scores of 2 joints (right ankle and knee) were used as radiological scores. From H&H-stained sections, articular cartilage destruction and inflammatory infiltrate in the right knee joint were scored on a scale of 0–3. The whole study was carried out in a blinded fashion. Statistical analysis was performed using one-way ANOVA.
The subject of assay [2] is coronary artery smooth muscle cells. Kind of assay: BioMAP assay CASM3C. In kind it is cell-based, human. The conditions noted are these: 1 μM, prednisolone = 100%. As to the method:
Next, effects of Org 214007-0 on the cytokine release by primary human whole blood cells treated with either LPS or anti-CD28/PMA were tested. […] These assays make use of different types of primary human cells, in this case coronary artery smooth muscle cells and neonatal foreskin fibroblasts, in an inflammatory environment, [28]. […] When all repressed and induced proteins are taken into account, a relative TI value for Org 214007-0 could be deduced of 1.7 in coronary artery smooth muscle cells and of 2.2 in neonatal foreskin fiboblasts.

For assay [3], the target named is T1, GR (Homo sapiens, UniProt P04150).
T1 sequence (P04150 1-777): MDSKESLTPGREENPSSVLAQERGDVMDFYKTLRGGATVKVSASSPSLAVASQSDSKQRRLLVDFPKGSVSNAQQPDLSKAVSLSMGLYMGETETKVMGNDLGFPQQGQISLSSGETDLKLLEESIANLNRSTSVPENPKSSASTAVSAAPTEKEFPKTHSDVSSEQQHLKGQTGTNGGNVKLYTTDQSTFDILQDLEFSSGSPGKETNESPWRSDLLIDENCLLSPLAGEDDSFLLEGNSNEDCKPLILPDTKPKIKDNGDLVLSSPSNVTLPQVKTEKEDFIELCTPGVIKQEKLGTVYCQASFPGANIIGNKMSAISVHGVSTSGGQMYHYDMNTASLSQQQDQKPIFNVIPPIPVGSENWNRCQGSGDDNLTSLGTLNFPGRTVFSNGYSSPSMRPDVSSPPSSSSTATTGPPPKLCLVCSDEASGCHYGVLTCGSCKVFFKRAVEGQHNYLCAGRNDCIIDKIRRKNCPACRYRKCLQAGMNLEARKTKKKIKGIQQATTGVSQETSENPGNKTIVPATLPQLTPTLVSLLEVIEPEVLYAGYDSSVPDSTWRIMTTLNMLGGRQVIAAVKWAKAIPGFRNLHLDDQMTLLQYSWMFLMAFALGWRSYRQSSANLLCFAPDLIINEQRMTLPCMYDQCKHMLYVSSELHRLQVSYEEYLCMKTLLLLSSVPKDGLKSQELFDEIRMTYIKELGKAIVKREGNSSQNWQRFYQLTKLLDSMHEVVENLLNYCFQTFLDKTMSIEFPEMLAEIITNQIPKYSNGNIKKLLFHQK
Kind of assay: CHO-GR B4.8 MMTV-luciferase induction of gene expression (agonistic). It is filed as cell-based. Set-up: expressed in transfected cells. The conditions noted are these: for Max. eff., MMTV-luc induction: relative to maximal effect of prednisolone (100%). From the text: For monitoring both human steroid receptor agonistic as well as antagonistic activity of compounds, Chinese hamster ovary (CHO) K1 cells stably co-transfected with the specific human steroid receptor and its respective reporter construct were used (as previously described).
For human glucocorticoid receptor (GR)-specific activity CHO-GR B4.8 cells containing both recombinant human GR as well as a reporter construct consisting of the mouse mammary tumor virus (MMTV) promotor and the luciferase reporter gene, were used. Compound was incubated alone (in the agonistic setup) or with 50 nM dexamethasone (in the antagonistic setup) overnight. Hereafter, 200 µl medium was removed and 50 µl luciferine substrate solution from the LucLite luminescence kit (Packard, Meriden, USA) was added. […] Percentage maximal antagonistic efficacy was related to the maximal antagonistic efficacy of reference GR antagonist Org 34116. Similar procedures were followed for the other human steroid receptor assays (for more detailed information see Supportive Information) (SI text).
For human glucocorticoid receptor (GR)-specific activity CHO-GR B4.8 cells containing both recombinant human GR as well as a reporter construct consisting of the mouse mammary tumor virus (MMTV) promotor and the luciferase reporter gene, were used. Compound was incubated alone (in the agonistic setup) or with 50 nM dexamethasone (in the antagonistic setup) in microtiter white culture plates seeded with 2.4 x 10^4 cells / 200 µl Dulbecco’s MEM/Nutrient Mix F12 medium (Gibco) supplemented with 5% charcoal treated defined bovine calf serum supplement (DBCSS, Hyclone, Utah, USA), and 10 U/ml Penicillin-10μg/ml Streptomycin (GibcoBRL) overnight at 37°C in the dark under a humidified atmosphere flushed with 5% CO2 in air. Hereafter, 200 µl medium was removed and 50 µl luciferine substrate solution from the LucLite luminescence kit (Packard, Meriden, USA) was added. After 10 minutes (when cell lysis was complete) luminescence of each sample was counted using a Topcount microplate luminescence counter. Percentage maximal agonistic efficacy was related to the maximal efficacy of dexamethasone. Percentage maximal antagonistic efficacy was related to the maximal antagonistic efficacy of reference GR antagonist Org 34116. EC50 value was calculated by 4-parameter curve fitting using the effect of 6 compound concentrations.

For assay [4], the system named is primary human whole blood cells. Kind of assay: Human whole blood LPS-induced cytokine release. The note with it: for pIC50: Whole blood cell, LPS, 24 hours, read-out: IC50, LPS-induced TNFα release; for Max. eff., LPS-induced TNFα repression: prednisolone = 100%. In kind it is cell-based. From the text: Hereafter, supernatant was carefully collected and tested at the most optimal dilution (predetermined by a titration study on control samples) in a human TNFα-specific ELISA (for the LPS stimulated samples) or in a human IL-5-specific or human G-CSF-specific ELISA (for the PMA/anti-CD28 stimulated samples) (Duoset, R&D systems USA).

pEC50, pIC50: −log10 of the molar value.

As to `C[C@]12C=CC(=O)C=C1CC[C@@H]1[C@@H]2[C@@H](O)C[C@@]2(C)[C@H]1CC[C@]2(O)C(=O)CO` [prednisolone, reference compound], in assay [1], the “disease score (arthritis score)” value is recorded as “dose-dependent reduction”. Moreover, in assay [2], the “Max. eff., induction of serum amyloid A (SAA)” value was 100%. For the same compound, the “Max. eff., MMTV-luc induction” value in assay [3] was 100%. Also, in assay [4], the pIC50 (commonly the IC50 on a negative log10 scale, so that one unit is a factor of ten) was 7.57 and the “Max. eff., LPS-induced TNFα repression” value worked out at 100%.
`Cc1nnsc1C(=O)N[C@H]1CCN2c3ccc(C#N)cc3[C@@H](C)c3ccccc3[C@@H]2C1` [Org 214007-0]: the disease symptoms result in assay [1] (1.5 mg/kg/day oral) is recorded as “total suppression”. The “bone damage by X-ray on knees and paws” value in assay [1] (0.5 and 1.5 mg/kg/day, end of study) was “significant reduction”. In addition, the “potency relative to prednisolone” value in assay [1] (CIA, oral once daily) was “about 3 fold”. The “disease score (arthritis score)” value in assay [1] is listed as “dose-dependent reduction”. The “histopathology of knee joints: inflammatory infiltrates, cartilage destruction, bone apposition” value in assay [1] (two highest doses (0.5 and 1.5 mg/kg/day)) is given as “significant reduction”. Also, in assay [2], the “Max. eff., induction of serum amyloid A (SAA)” value is recorded as 58%. The pEC50 (in general, −log10 of the EC50, conventionally taken in molar units) in assay [3] (CHO cells co-transfected with human GR and MMTV-luciferase, mean (±SD), read-out: EC50, MMTV-luc induction) is 8.29. Further, the figures for the “Max. eff., MMTV-luc induction” value in assay [3] and in assay [3] (listed as Org) were 32% and 32 (±8.1) %, respectively. In addition, in assay [4], the negative-log IC50 (pIC50) was 7.30. Besides, the “Max. eff., LPS-induced TNFα repression” value in assay [4] was 68 (±8.7) %.
